Measurements reported in patent publication US20230264009A1, “DISINFECTING CAP KIT FOR LUER ACCESS DEVICES” (SterileCare Inc., priority 2022, published 2023).

Legend:
[1] = test system: Escherichia coli ON29; assay: MIC, micro broth dilution; format: cell-based; settings: alone; E. coli ON29; 24 h
Experimental: (§1) An assay was made using a minimum inhibitory concentration (MIC) and minimum bactericidal concentration (MBC) and minimum fungicidal concentration (MFC) determination. The MIC was determined by the micro broth dilution method in 96-well plates. Serial two-fold dilutions of tetrasodium EDTA (from 2% to 0.015%), ethanol (from 50% to 0.1%) and chlorhexidine HCl (from 100 µg/mL to 0.025 µg/mL) were prepared in MH broth with a final volume of 90 µL per well. A 10 µL containing 1 × 10^5 bacterial cells or 2 × 10^3 fungal cells were added to each well. The inoculated plates were covered with a lid, sealed with Parafilm, and incubated for 24 h at 37° C. with slight rocking on a tilting platform shaker. After incubation, the optical density at 600 nm (OD 600 ) of the cultures in each well was measured using an xMark™ Microplate Absorbance Spectrophotometer (Bio-Rad). […] MBCs and MFCs were determined by transferring 100 µL from each well with no apparent growth onto appropriate agar plates, followed by incubation for 24 h at 37° C.

[2] = test system: Staphylococcus aureus ON89; assay: MIC, micro broth dilution; format: cell-based; settings: alone; S. aureus ON89; 24 h
Experimental: as §1

[3] = test system: Serratia marcescens SK2; assay: MIC, micro broth dilution; format: cell-based; settings: alone; S. marcescens SK2; 24 h
Experimental: as §1

[4] = test system: Stenotrophomonas maltophilia ON17; assay: MIC, micro broth dilution; format: cell-based; settings: alone; S. maltophilia ON17; 24 h
Experimental: as §1

[5] = test system: Proteus mirabilis ON153; assay: MIC, micro broth dilution; format: cell-based; settings: alone; P. mirabilis ON153; 24 h
Experimental: as §1

[6] = test system: Staphylococcus epidermidis ON170; assay: MIC, micro broth dilution; format: cell-based; settings: alone; S. epidermidis ON170; 24 h
Experimental: as §1

[7] = test system: Pseudomonas aeruginosa SK1; assay: MIC, micro broth dilution; format: cell-based; settings: alone; P. aeruginosa SK1; 24 h
Experimental: as §1

[8] = test system: Candida albicans SK4b; assay: MIC, micro broth dilution; format: cell-based; settings: alone; C. albicans SK4b; 24 h
Experimental: as §1

[9] = test system: C. albicans ON47 biofilm; assay: FBEC index, checkerboard dilution on biofilms; format: cell-based, Candida albicans
Experimental: In step (4), microtiter plates are incubated at 37° C. for 24 h. then (6), after incubation, the bacterial and fungal cells were dislodged from the pegs into the recovery medium described above.
Three 10-µL aliquots, for a total of 30 µL from each well of recovery medium, were spotted on MH agar plates and incubated for 24 h at 37° C. […] The FBEC determination is a modification of the FICI.

[10] = test system: Escherichia coli ON29; assay: Checkerboard titration, FMCI; format: cell-based; settings: E. coli ON29
Experimental: as §1
(§2) A fourth composition and solution included tetrasodium EDTA with ethanol or chlorhexidine HCl. This fourth composition and solution were created using checkerboard titration methods using micro broth dilution in 96-well microtiter plates. The concentrations of antimicrobials used were based on previously determined MIC values. Briefly, 200 µL of two-fold dilutions of tetrasodium EDTA and ethanol or chlorhexidine HCl were prepared in MH or MH II broth with standardized cell suspension. […] Microtiter plates were incubated at 37° C. for 24 h, and the results were analyzed. Each test was performed in duplicate and included a growth control without adding any antimicrobials.

[11] = test system: Staphylococcus aureus ON89; assay: Checkerboard titration, FMCI; format: cell-based; settings: S. aureus ON89
Experimental: as §1, §2

[12] = test system: Serratia marcescens SK2; assay: Checkerboard titration, FMCI; format: cell-based; settings: S. marcescens SK2
Experimental: as §1, §2

[13] = test system: Stenotrophomonas maltophilia ON17; assay: Checkerboard titration, FMCI; format: cell-based; settings: S. maltophilia ON17
Experimental: as §1, §2

[14] = test system: Proteus mirabilis ON153; assay: Checkerboard titration, FMCI; format: cell-based; settings: P. mirabilis ON153
Experimental: as §1, §2

[15] = test system: Staphylococcus epidermidis ON170; assay: Checkerboard titration, FMCI; format: cell-based; settings: S. epidermidis ON170
Experimental: as §1, §2

[16] = test system: Pseudomonas aeruginosa SK1; assay: Checkerboard titration, FMCI; format: cell-based; settings: P. aeruginosa SK1
Experimental: as §1, §2

[17] = test system: Candida albicans SK4b; assay: Checkerboard titration, FMCI; format: cell-based; settings: C. albicans SK4b
Experimental: as §1, §2

[18] = test system: S. epidermidis SK9; assay: MBC/MFC determination; format: cell-based, Staphylococcus epidermidis; settings: alone
Experimental: as §1

[19] = test system: MRSA ON184; assay: MBC/MFC determination; format: cell-based, Staphylococcus aureus; settings: alone
Experimental: as §1

[20] = test system: E. coli SK2; assay: MBC/MFC determination; format: cell-based, Escherichia coli; settings: alone
Experimental: as §1

[21] = test system: 48-h old biofilms of test organisms; assay: Rapid biofilm eradication, 2 h exposure; format: cell-based; settings: alone at the MBEC
Experimental: Determining rapid biofilm eradication by tetrasodium EDTA, ethanol, and chlorhexidine HCl alone and in combination was performed. After biofilm formation, control pegs (n = 6) were removed and analyzed to determine the starting biofilm cell numbers via the drop dilution method. The 48-h old biofilms on the pegs were exposed to different concentrations of test antimicrobials, dissolved in an appropriate growth medium, for two h to evaluate their efficacy alone and in combination. Antimicrobial solutions tested against each organism included each agent alone at the MBEC, double combinations at the FBEC, and triple combinations ranging from 5 to 20% ethanol, 2.5-5 µg/mL chlorhexidine HCl and 1- 3% tetrasodium EDTA. Following treatment, pegs were washed twice with sterile PBS, and the biofilm cells were dislodged into recovery medium and enumerated as described above.
The method for rapid biofilm eradication ability of test antimicrobials alone and in combination against 48-h-old biofilms within two h exposure time included (1) choosing different concentrations of test antimicrobials to assess their potency in eradicating preformed biofilms of study organisms within two h. Then (2) the quantitative recovery from biofilms following exposure to the antimicrobial solutions for bacterial strains (FIGS. 6A-6C) and fungal strains (FIG. 7) was evaluated.

[22] = test system: MRSA ON184; assay: Checkerboard titration, FICI; format: cell-based, Staphylococcus aureus
Experimental: as §2

[23] = test system: S. epidermidis SK9; assay: MIC, micro broth dilution; format: cell-based, Staphylococcus epidermidis; settings: alone, 24 h
Experimental: as §1

[24] = tetrasodium EDTA + chlorhexidine HCl

Q: `O=C([O-])CN(CCN(CC(=O)[O-])CC(=O)[O-])CC(=O)[O-].[Na+].[Na+].[Na+].[Na+]` [EDTA, tetrasodium EDTA] was tested. Which MIC [1] did it give?
A: 0.5 % w/v

Q: And the MIC [2]?
A: 0.063 % w/v

Q: What about the MIC [3] of the same molecule?
A: 2 % w/v

Q: What about the MIC [4] of the same molecule?
A: 0.063 % w/v

Q: What about the MIC [5] of the same molecule?
A: 1 % w/v

Q: And the MIC [6]?
A: 0.063 % w/v

Q: And the MIC [7]?
A: 0.25 % w/v

Q: And the MIC [8]?
A: 1 % w/v

Q: And the “FBEC (concentration in combination)” value [9, 24]?
A: 0.031 % w/v

Q: And the “FBEC (concentration in combination)” value ([9]; tetrasodium EDTA + ethanol)?
A: 0.125 % w/v

Q: And the “Concentration in combination giving FMCI” value [10, 24]?
A: 0.008 % w/v

Q: And the “Concentration in combination giving FMCI” value ([10]; tetrasodium EDTA + ethanol)?
A: 0.25 % w/v

Q: What about the “Concentration in combination giving FMCI” value [11, 24] of the same molecule?
A: 0.008 % w/v

Q: What about the “Concentration in combination giving FMCI” value ([11]; tetrasodium EDTA + ethanol) of the same molecule?
A: 0.25 % w/v

Q: What about the “Concentration in combination giving FMCI” value [12, 24] of the same molecule?
A: 0.125 % w/v

Q: What about the “Concentration in combination giving FMCI” value ([12]; tetrasodium EDTA + ethanol) of the same molecule?
A: 0.25 % w/v

Q: What about the “Concentration in combination giving FMCI” value [13, 24] of the same molecule?
A: 0.031 % w/v

Q: What about the “Concentration in combination giving FMCI” value ([13]; tetrasodium EDTA + ethanol) of the same molecule?
A: 0.125 % w/v

Q: What about the “Concentration in combination giving FMCI” value [14, 24] of the same molecule?
A: 0.125 % w/v

Q: And the “Concentration in combination giving FMCI” value ([14]; tetrasodium EDTA + ethanol)?
A: 0.063 % w/v

Q: What about the “Concentration in combination giving FMCI” value [15, 24] of the same molecule?
A: 0.25 % w/v

Q: And the “Concentration in combination giving FMCI” value ([15]; tetrasodium EDTA + ethanol)?
A: 0.031 % w/v

Q: What about the “Concentration in combination giving FMCI” value [16, 24] of the same molecule?
A: 0.031 % w/v

Q: And the “Concentration in combination giving FMCI” value ([16]; tetrasodium EDTA + ethanol)?
A: 0.031 % w/v

Q: What about the “Concentration in combination giving FMCI” value [17, 24] of the same molecule?
A: 0.125 % w/v

Q: What about the “Concentration in combination giving FMCI” value ([17]; tetrasodium EDTA + ethanol) of the same molecule?
A: 0.25 % w/v

Q: What about the MBC/MFC [18] of the same molecule?
A: 0.5 % w/v

Q: What about the MBC/MFC [19] of the same molecule?
A: 2 % w/v

Q: And the MBC/MFC [20]?
A: 0.5 % w/v

Q: What about the “Eradication of preformed biofilms” value [21] of the same molecule?
A: failed to eradicate

Q: And the “Concentration in combination giving FICI” value [22, 24]?
A: 0.008 % w/v

Q: What about the “Concentration in combination giving FICI” value ([22]; tetrasodium EDTA + ethanol) of the same molecule?
A: 0.015 % w/v

Q: What about the MIC [23] of the same molecule?
A: 0.063 % w/v
